Results: patent publication US12441710B2, “Substituted piperidino compounds and related methods of treatment” (Alkermes, Inc., priority 2020, dated 2025)

Experiments:
human hepatocytes = assay: Hepatocytes stability assay (human hepatocytes); type: in vitro ADME; details: hepatic clearance divided by liver blood flow, fu assumed unity
How it was run: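 Pooled cryopreserved human hepatocytes (50 donors, mixed gender), 1×10^6 cells/mL in KHB, with 1 μM compound (0.1% DMSO) at 37 degrees C, sampled 0–240 min. Parent depletion by LC-MS/MS; first-order fit gave T1/2 and CLint, scaled to hepatic clearance by well-stirred model with fu assumed 1, plus extraction ratio.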

[1] = biological target: T1, human orexin-2 receptor (OX2R) (Homo sapiens, UniProt O43614); assay: Human OX2R IP1 assay; type: cell-based; details: T-Rex CHO cells stably overexpressing human OX2R; IP1 accumulation, 1 hr at 37 degrees C
T1 construct: expressed in transfected cells
T1 sequence (O43614 1-444): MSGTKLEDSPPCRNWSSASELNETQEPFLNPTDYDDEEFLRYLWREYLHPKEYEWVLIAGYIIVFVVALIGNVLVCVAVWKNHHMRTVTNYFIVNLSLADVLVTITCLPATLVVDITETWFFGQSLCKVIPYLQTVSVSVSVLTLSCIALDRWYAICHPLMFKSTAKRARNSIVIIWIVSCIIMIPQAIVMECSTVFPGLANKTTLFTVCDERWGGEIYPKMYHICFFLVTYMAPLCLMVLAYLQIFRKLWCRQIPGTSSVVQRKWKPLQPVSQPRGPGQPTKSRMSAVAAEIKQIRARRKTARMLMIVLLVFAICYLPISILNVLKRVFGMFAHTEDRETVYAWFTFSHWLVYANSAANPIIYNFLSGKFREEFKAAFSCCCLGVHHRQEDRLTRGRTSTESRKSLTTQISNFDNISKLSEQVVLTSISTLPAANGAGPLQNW
Description: T-Rex CHO cells stably overexpressing the human orexin-2 receptor (OX2R) were induced overnight with 1 μg/mL of doxycycline in a T225 flask. 24 hours post induction, cells were lifted with accutase and plated into a 384-well proxy plate at 30,000 cells/well. Cells were then treated with different test compounds in 1× stimulation buffer containing 10 mM Hepes, 1 mM CaCl2), 0.5 mM MgCl2, 4.2 mM KCl, 146 mM NaCl, 5.5 mM glucose, and 50 mM LiCl, pH 7.4, for 1 hr at 37 degrees C. Following incubation, the reaction was terminated by the addition of detection mix, which is composed of IP1-d2 and anti-IP1-cryptate diluted in lysis buffer as well as 1× stimulation buffer. The plates were allowed to incubate for 1 hour at room temperature and were then read in the EnVision® multimode plate reader, measuring inositol phosphate levels.
Cisbio IP1 is a cell-based functional assay quantifying the accumulation of inositol monophosphate (IP), a metabolite released as a result of orexin 2 receptor activation through the phospholipase C-Gq signaling pathway. This is a competitive immunoassay in which the IP1 produced by the cells upon receptor activation competes with the IP1 analog coupled to the d2 fluorophore (acceptor) for binding to an anti-IP1 monoclonal antibody labeled with Eu cryptate (donor). The measured HTRF-FRET based signal is inversely proportional to the IP1 concentration produced.
The EC50 values reported in Table 2 were obtained according to the human OX2R IP1 assay described above. Data are the mean EC50 values±S.E.M. The compound methyl (2R,3S)-3-((methylsulfonyl)amino)-2-(((cis-4-phenylcyclohexyl)oxy)methyl)-piperidine-1-carboxylate (sometimes referred to herein as Reference Compound A) is a reference compound which is disclosed in Example 5 of PCT publication no. WO2017/135306.

Sprague-Dawley rats = assay: Assessment of wake promotion in Sprague-Dawley rats (EEG/EMG); type: in vivo, rat; details: SC, 3 mpk; male Sprague-Dawley rats; 6-hour post-dose period
Description: Wake promotion was assessed using electroencephalography (EEG) and electromyography (EMG) in adult male Sprague-Dawley rats. All rats (Charles River Laboratories, Raleigh, NC, USA) were intraperitoneally implanted with telemetry devices (F50-EEE, Data Sciences International Inc., MN, USA) under isoflurane anesthesia. For EEG, stainless steel screws were implanted over frontal cortex and parietal cortex, and reference screws were placed over cerebellum. Additionally, an electrode was placed in neck muscle for EMG. Rats were given carprofen post-surgery and underwent a 7 to 10-day recovery period. Rats habituated to the experimental room for 7 days and were maintained on a 12-hour light-dark cycle.
EEG and EMG data were recorded using the DSI telemetry system and Ponemah software (Data Sciences International Inc., MN, USA). Sleep-wake stages were scored both manually and with Somnivore, a supervised machine learning software platform, in 10 second epochs. Records were visually inspected as needed post-processing.
All test compounds were dissolved in 5% DMSO and suspended in 95% saline with 0.5% methylcellulose and 0.5% tween. […] Unless otherwise indicated, all compounds were dosed orally. Recordings for each rat were initiated immediately after dosing and lasted for 6 hours post-dose.
Two key endpoints include wakefulness time and cortical activation time. […]

Extraction Ratio (ER) (human hepatocytes): 0.92
EC50 [1]: < 100 nM
Compound: COC(=O)N1CCC[C@H](NS(C)(=O)=O)[C@@H]1CO[C@H]1CC[C@@H](c2ccccc2)CC1 [Reference Compound A, methyl (2R,3S)-3-((methylsulfonyl)amino)-2-(((cis-4-phenylcyclohexyl)oxy)methyl)-piperidine-1-carboxylate, reference compound]
Mean cortical activation time (% vehicle treatment) (Sprague-Dawley rats): 118.75 % vehicle treatment
